Consider one molecule from patent US20210275686A1, “BINDER/ACTIVE AGENT CONJUGATES DIRECTED AGAINST CXCR5, HAVING ENZYMATICALLY CLEAVABLE LINKERS AND IMPROVED ACTIVITY PROFILE” (BAYER AKTIENGESELLSCHAFT, priority 2018, published 2021).

Assay [1] deals with Rec-1: human mantle cell lymphoma cells. Description: Cytotoxic activity, CTG assay, Rec-1. In kind it is cell-based. As to conditions: Rec1, metabolites. The protocol:
(§1) The culturing of the cells is performed according to the standard method, as specified at the American Tissue Culture Collection (ATCC) or the Leibniz-Institut DSMZ-Deutsche Sammlung von Mikroorganismen and Zellkulturen GmbH (DSMZ) for the respective cell lines.
The cells were cultured using the standard method, with the growth media specified under C-1. To perform the test, the suspended cells were counted and seeded in a 96-well culture plate with a white background (Perkin Elmer, NO 10775584) (at 75 μL/well; the resulting cell numbers per well are: Rec-1: 3000 cells/well, HBL-1 and Oci-Ly-1: 6000 cells/well) and incubated in an incubator at 37° C. and 5% carbon dioxide. […] In a parallel plate, the cell vitality was determined at the beginning of the active agent treatment (day 0) with the Cell Titer Glow (CTG) Luminescent Cell Viability Assay (Promega #G7573 and #G7571). For this purpose, 100 μL of the substrate were added per cell batch; then the plates were covered with aluminum foil, shaken for 2 minutes at 180 rpm with the plate shaker, allowed to stand for 8 minutes on the laboratory bench and then measured with a luminometer (Victor X2, Perkin Elmer). The substrate detected the ATP content in the living cells, generating a luminescence signal whose height is directly proportional to the vitality of the cells. […]

Assay [2] has the same test system. The assay is described as follows: Cytotoxic activity, MTT assay, Rec-1. In kind it is cell-based. Conditions: Rec1, metabolites, 96 h. The protocol:
as §1
(§2) The culturing of the cells was performed according to the standard method with the growth media specified under C-1. For execution, the cells were separated with a solution of Accutase in PBS (Biochrom AG #L2143), pelleted, resuspended in culture medium, counted and seeded on a 96-well culture plate with a white background (Costar #3610) (NCI H292: 2500 cells/well; in 100 μL total volume). Then the cells were incubated in an incubator at 37° C. and 5% carbon dioxide. After 48 h a change of medium was performed. […] The cells in the suspension were counted and seeded into a 96-well culture plate with white background (Costar #3610) (#3610) (Rec-1: 3000 cells/well at a total volume of 100 μL). […] After 96 h the cell proliferation was detected using the MTT assay (ATCC, Manassas, Va., USA, Catalog No. 30-1010K). […] The color formed was detected at 570 nm (Infinite M1000 pro, Tecan). Based on the measured data the IC50 of the growth inhibition was calculated using the DRC (dose-response curve). […]
Background: Tetrazolium dyes change colour on reduction, which living cells bring about.

Assay [3] relates to NCI-H292: human mucoepidermoid lung cancer cells. The assay is described as follows: Cytotoxic activity, MTT assay, NCI-H292. Conditions: metabolites, 96 h. In kind it is cell-based. The protocol: as §1, §2
Assay [4] has as its target T1, human kinesin spindle protein KSP/Eg5 (Homo sapiens, UniProt P52732).
T1 construct: The motor domain of the human kinesin spindle protein KSP/Eg5; purchased tebu-bio/Cytoskeleton Inc 027EG01-XL
T1 sequence (P52732 18-359 limits assumed): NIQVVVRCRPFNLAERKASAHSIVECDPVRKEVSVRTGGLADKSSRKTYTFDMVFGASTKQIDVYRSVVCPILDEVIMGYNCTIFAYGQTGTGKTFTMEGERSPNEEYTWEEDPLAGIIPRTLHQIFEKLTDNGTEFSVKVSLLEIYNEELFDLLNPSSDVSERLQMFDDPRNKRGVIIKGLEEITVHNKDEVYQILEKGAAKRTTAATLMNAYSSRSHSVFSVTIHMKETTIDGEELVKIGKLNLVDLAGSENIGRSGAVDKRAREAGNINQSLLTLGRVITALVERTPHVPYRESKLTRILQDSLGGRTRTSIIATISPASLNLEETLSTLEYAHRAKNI
Description: Inhibition of kinesin spindle protein KSP/Eg5 (ATPase, malachite green). In kind it is biochemical. Conditions: 10 nM KSP motor domain, microtubules, 500 μM ATP, 2 h RT.
Description: The motor domain of the human kinesin spindle protein KSP/Eg5 (tebu-bio/Cytoskeleton Inc, No. 027EG01-XL) was incubated in a concentration of 10 nM with microtubules (bovine or porcine, tebu-bio/Cytoskeleton Inc) stabilized with 50 μg/ml taxol (Sigma No. T7191-5MG) for 5 min at RT in 15 mM PIPES, pH 6.8 (5 mM MgCl2 and 10 mM DTT, Sigma). The freshly prepared mixture was aliquoted into a 384 MTP (from Corning). This was followed by the addition of the inhibitors to be investigated at concentrations from 1.0×10^−6 M to 1.0×10^−13 M and ATP (final concentration 500 μM; Sigma). The mixture was incubated at RT for 2 h. The ATPase activity was determined by detection of the inorganic phosphate produced with malachite green (Biomol). Addition of the reagent was followed by incubation for 50 min at RT before the absorption was detected at a wavelength of 620 nm. Monastrol (Sigma, M8515-1 mg) and ispinesib (AdooQ Bioscience A10486) were used as positive controls. The individual data for the dose-efficacy curve are from eight-fold determinations. The IC50 values are mean values from two independent experiments.

The IC50 is the concentration at which inhibition is half-maximal. As for `CC(C)(C)[C@H](c1cc(-c2cc(F)ccc2F)cn1Cc1ccccc1)N(CCCN)C(=O)CO` [Reference Example R1M, N-(3-Aminopropyl)-N-{(IR)-1-[1-benzyl-4-(2,5-difluorophenyl)-IH-pyrrol-2-yl]-2,2-dimethylpropyl}-2-hydroxyacetamide, reference compound], the IC50 in assay [1] is 0.205 nM; in assay [2] it was 0.293 nM; in assay [3], 0.27 nM; in assay [4], 1.09 nM.
